# Assay: Reverse-phase HPLC retention time as indicator of hydrophilicity/lipophilicity
# Type: physicochemical
# Conditions: chromatographic, COSMOSIL 5C18-AR-300 (4.6 x 150 mm), eluent A H2O/0.1% TFA, eluent B CH3CN/0.1% TFA, A:B = 80:20 to 20:80 in 25 min, detection 649 nm (Cy5/sulfoCy5) or 545 nm (Cy3/sulfoCy3), used as indicator of hydrophilicity/lipophilicity
# Description: General chemicals were of the best grade available, supplied by FUJIFILM Wako Pure Chemical Corporation (Osaka, Japan), Tokyo Chemical Industries Co., Ltd. (Tokyo, Japan), KANTO CHEMICAL Co., INC. (Tokyo, Japan), and Sigma-Aldrich Co. LLC (St. Louis, MO, USA), and were used without further purification. Cy3/Cy5-SE was purchased from Abcam (Cambridge, UK) and sulfoCy3/sulfoCy5-SE was purchased from AAT Bioquest (Sunnyvale, CA, USA). Peptide A was purchased from GlyTech, Inc. (Kyoto, Japan). MALDI-TOF mass spectra (MS) were measured with an Autoflex III TOF/TOF (Bruker Corporation, Billerica, MA, USA). Purification and high-performance liquid chromatography (HPLC) analyses were performed by HPLC systems (Shimadzu Corporation, Kyoto, Japan) with reverse-phase columns: the COSMOSIL 5C18-AR-300 (4.6 × 150 mm) (NACALAI TESQUE, INC., Kyoto, Japan) for analysis and the COSMOSIL 5C18-AR-300 (10 mm × 150 mm) (NACALAI TESQUE, INC.) for purification, using eluent A (H2O/0.1% trifluoroacetic acid (TFA)) and eluent B (CH3CN/0.1% TFA). Fluorescence images of living cells were taken on a BX41 upright fluorescent microscope (Olympus Corporation, Tokyo, Japan) equipped with a suitable filter set for Cy3/Cy5 dyes; it consisted of a 530–550 nm excitation filter and a 575–625 nm emission filter for the Cy3 dye, and a 608–648 nm excitation filter and a 652–732 nm emission filter for the Cy5 dye. […] Fluorescence images of animals and organs were taken with a FluorVivo Imaging System (Indec BioSystems, Santa Clara, CA, USA) equipped with a suitable filter set for a Cy5 dye; it consisted of a 600–640 nm excitation filter and a 665 nm long pass filter. […]
# Cy3/Cy5-peptide A and sulfoCy3/sulfoCy5-peptide A were synthesized using commercially available Cy3/Cy5 succinimidyl ester (SE) and sulfoCy3/sulfoCy5 SE (Figure 1). […] Dye-SE and dye-peptide A were analyzed by HPLC under the same conditions; the retention times are shown in Table 1 because they are indicators of hydrophilicity/lipophilicity. […]
# Figure S1. […] The compounds were analyzed by reverse-phase HPLC (eluent A: […]
row,Retention Time,Compound
1,7.3 min,CCN1C(=CC=CC2=[N+](CCCCCC(=O)ON3C(=O)CCC3=O)c3ccc(S(=O)(=O)O)cc3C2(C)C)C(C)(C)c2cc(S(=O)(=O)[O-])ccc21 [sulfoCy3-SE]
2,9.3 min,CCN1C(=CC=CC=CC2=[N+](CCCCCC(=O)ON3C(=O)CCC3=O)c3ccc(S(=O)(=O)O)cc3C2(C)C)C(C)(C)c2cc(S(=O)(=O)[O-])ccc21 [sulfoCy5-SE]
3,22.6 min,Cy5 succinimidyl ester [Cy5-SE]
